Source: patent US11845992B2, “Compositions and methods for predicting response and resistance to CDK4/6 inhibition” (DANA-FARBER CANCER INSTITUTE, INC., priority 2017, dated 2023)
“Also recorded” adds a separate entry of the source. Like-named read-outs stand apart in the source and are kept apart here.

Legend:
T47D cells [1] = assay: Flow cytometry cell cycle analysis; format: cell-based
T47D cells [2] = assay: Growth inhibition assay, 5 days, normalized to DMSO; format: cell-based; settings: for change of GI50 by CDK6 overexpression: CDK6 overexpressing vs parental T47D; for change of GI50 by miR-432 overexpression: parental T47D overexpressing miR-432 (FIG. 10A)
Method: (§1) Subsequently, cell growth was quantified and normalized to DMSO treated control.
Subsequently, cell growth was quantified and normalized to DMSO treated control. BLISS Synergy/antagonism score was modelled using Combenefit software. FIG. 12C is a graph, wherein T47D parental and resistant cells were treated with escalating dose of galunisertib for 5 days. Subsequently, cell growth was quantified and normalized to DMSO treated control.

[3] = tested on: GFP-positive parental T47D cells; assay: GFP co-culture resistance transmission assay; settings: 72 hours co-culture, exosome production inhibited
Method: FIG. 11A is a bar graph, wherein cells were treated with either DMSO, 10 μM GW4869 or 10 μM manumycin A for 72 hours prior to exosome harvest and quantification. […] Subsequently, cells were harvested and analyzed by flow cytometry for GFP expression and cell cycle profile.

[4] = tested on: CDK6 protein in T47D cells; assay: Western blot of CDK6 protein expression; format: cell-based; settings: palbociclib exposure up to 6 days
Method: Cells were lysed with RIPA buffer (10 mM Tris, pH 7.5, 1% Nonidet-P40, 2 mM Na2EDTA, 150 mM NaCl) plus protease inhibitors (Calbiochem) and protein estimation was performed by Pierce assay. Gel electrophoresis was performed with Bis-Tris 4-12% (v/v) polyacrylamide gradient gels (ThermoFisher). Samples were transferred onto Immobilin-P PVDF membrane (EMD Millipore), and probed with primary antibodies against either CDK1, CDK2, CDK4, CDK6, Cyclin D1, Cyclin D3, Cyclin E, p2′7, SMAD3, SMAD4, TGFβ, TGFβR3 (Santa Cruz), pRB (Cell signaling) or actin (Genescript). Goat anti-rabbit or goat anti-mouse HRP-linked secondary antibodies (1:1000; Dako) and ECL reagent (Perkin Elmer) were used for protein detection. Cytokines were analyzed using the Human Cytokine Array Kit performed per manufactures instructions (R&D Systems).

[5] = tested on: palbociclib resistant MCF7 xenografts; assay: Palbociclib resistant MCF7 xenograft with treatment holiday; format: in vivo, mice; settings: 100 mg/kg/day oral gavage, after 28 days treatment holiday
Method: Female nude mice (NCr-Foxn1^NU, Tactonic Laboratories) were maintained and handled in isolators under specific pathogen-free conditions for tissue distribution and efficacy studies in accordance with local guidelines and therapeutic interventions approved by the Animal Care and Use Committee of Dana-Farber Cancer Institute. Mice were implanted with 17β-estradiol pellets (0.36 mg, 90-day release, Innovative Research of America) prior to cell implantation. […] Tumors were measured throughout the experiment and relative tumor volume calculated.

T47D cells [6] = assay: cells; format: cell-based; settings: for CC50: Homo sapiens, T47D
Method: Cells were incubated for 14 to 21 days to allow colony formation. Colonies were fixed and permeabilised using Carnoy's fixative (75% methanol, 25% Acetic acid) and stained with 1% crystal violet and counted.
Cells stably expressing shRNA, miRNA or cDNA were generated using lentiviral transfection, as previously described using the pLKO.1 or pLEX-307 backbone (Moffat, J. et al., Cell 124: 1283-1298 (2006)). Multiple stable cell lines were generated for each protein knockdown; shRNA sequences were obtained from the RNAi Consortium database (Moffat, J. et al., Cell 124: 1283-1298 (2006)). CDK6 GeneArt cDNA sequences (K43M (Hu, M. G. et al., Blood 117: 6120-6131 (2011)), S178P (Bockstaele, L. et al., Mol. Cell Biol. 29: 4188-4200 (2009)) and R31C (Hu, M. G. et al., Blood 117: 6120-6131 (2011)) were purchased from ThermoFisher and cloned into the pLEX-307 backbone. For miRNA overexpression, ˜500 bp of DNA encompassing each miRNA sequence was PCR purified and cloned into the pLEX-307 backbone, miRNA mimics were purchased and transfected into cells as a positive control for miRNA detection. Protein expression/miRNA expression/knockdown was confirmed after 5 days of selection in puromycin (1 μg/ml for both T47D and MCF7).
CDK6 by CRIPSR/Cas9 was performed as previously described (Sanjana, N. E. et al., Nat. Meth 11: 783-784 (2014)). The following sgRNA sequence was cloned into the LentiCRIPSR v2 vector-sgCDK6-7 (targeting the 5′UTR): […] (SEQ ID NO: 2). Cells were selected using 1 μg/ml puromycin and protein knockout confirmed after ˜12 days.

T47D cells [7] = assay: Annexin V apoptosis assay; settings: 48 hours
MCF7 cells = assay: Growth inhibition assay, 5 days, normalized to DMSO; format: cell-based; settings: for change of GI50 by CDK6 overexpression: CDK6 overexpressing vs parental MCF7 (printed MCG-7); for change of GI50 by miR-432 overexpression: parental MCF7 overexpressing miR-432 (FIG. 10B)
Text: as §1

[8] = tested on: parotid cancer harboring CDKN2A/B loss; settings: one patient; cited from earlier work
[9] = tested on: estrogen receptor positive (ER+) and HER2 negative breast cancer; settings: patients; previous results; cited from earlier work

SMILES: Cc1cccc(-c2nn3c(c2-c2ccnc4ccc(C(N)=O)cc24)CCC3)n1 [galunisertib]
- effect on palbociclib G1 arrest (T47D cells [1]; in combination with palbociclib, T47D, 24 hours): prevent G1 arrest
- interaction with palbociclib (BLISS synergy/antagonism) (T47D cells [2]; combined with palbociclib, parental and resistant T47D cells): significantly antagonistic
- effect on growth when used alone (T47D cells [2]; parental or resistant T47D cells, 5 days): no effect

SMILES: CCCC[C@@H](C)/C=C(C)/C=C(\C)C(=O)NC1=C[C@@](O)(/C=C/C=C/C=C/C(=O)NC2=C(O)CCC2=O)[C@@H]2O[C@@H]2C1=O [manumycin A]
- G1 population of GFP-positive parental cells co-cultured with resistant cells [3]: significant increase

SMILES: CC(=O)c1c(C)c2cnc(Nc3ccc(N4CCNCC4)cn3)nc2n(C2CCCC2)c1=O [palbociclib]
- effect on CDK6 expression [4]: no observable effect
- tumor burden after re-introduction of treatment [5]: substantial regression of all but 1 tumor; also recorded: marked decrease
- CC50 (T47D cells [6]; read-out: LC50, survival after palbociclib treatment, CDK6 knockout T47D cells (sgK6-7)): 34.2 nM
- CC50 (T47D cells [6]; read-out: LC50, survival after palbociclib treatment, INK4-insensitive CDK6 (R31C) T47D cells): 632 nM
- CC50 (T47D cells [6]; read-out: LC50, survival after palbociclib treatment, constitutively active CDK6 (S178P) T47D cells): 269 nM
- CC50 (T47D cells [6]; read-out: LC50, survival after palbociclib treatment, control T47D cells (sgNT)): 66.2 nM
- CC50 (T47D cells [6]; read-out: LC50, survival after palbociclib treatment, kinase dead CDK6-expressing T47D cells (K43M)): 26.6 nM
- CC50 (T47D cells [6]; read-out: LC50, survival after palbociclib treatment, wild-type CDK6 (WT) T47D cells): 229 nM
- survival after palbociclib treatment compared to non-target shRNA control (T47D cells [6]; shRNA-mediated CDK6-depleted T47D cells): significantly lower survival
- sub-G1 DNA content compared to control cells (T47D cells [1]; CDK6-depleted T47D cells, 100 nM, 24 hours): significantly more
- cells in the G1 phase of the cell cycle (T47D cells [1]; T47D, 100 nM, initial exposure (week 0)): more than 90%
- cell cycle effect in parental cells (T47D cells [1]; parental T47D, 100 nM or 300 nM, persisted for 14 days): sustained G1 arrest
- cell cycle arrest on re-challenge (T47D cells [1]; resistant cells after 6 weeks in drug-free media, 100 nM for 24 hours): indistinguishable from parental cells
- apoptosis (T47D cells [7]; CDK6 knockdown and knockout T47D cells): marked increase
- effect on apoptotic fraction (T47D cells [7]; shNT-expressing T47D cells): no effect
- change of GI50 by CDK6 overexpression (MCF7 cells): significantly increased
- change of GI50 by miR-432 overexpression (MCF7 cells): significantly increased
- change of GI50 by CDK6 overexpression (T47D cells [2]): significantly increased
- change of GI50 by miR-432 overexpression (T47D cells [2]): significantly increased

SMILES: O=C(/C=C/c1ccc(/C=C/C(=O)Nc2ccc(C3=NCCN3)cc2)cc1)Nc1ccc(C2=NCCN2)cc1 [GW4869]
- G1 population of GFP-positive parental cells co-cultured with resistant cells [3]: significant increase

SMILES: CN(C)C(=O)c1cc2cnc(Nc3ccc(N4CCNCC4)cn3)nc2n1C1CCCC1 [ribociclib]
- clinical response [8]: partial response
- change of GI50 by CDK6 overexpression (MCF7 cells): significantly increased
- cross-resistance of palbociclib resistant cells (MCF7 cells; palbociclib resistant (100 nM) MCF7 vs parental): significantly more resistant
- change of GI50 by miR-432 overexpression (MCF7 cells): significantly increased
- change of GI50 by CDK6 overexpression (T47D cells [2]): significantly increased
- cross-resistance of palbociclib resistant cells (T47D cells [2]; palbociclib resistant (100 nM) T47D vs parental): significantly more resistant
- change of GI50 by miR-432 overexpression (T47D cells [2]): significantly increased

SMILES: N#Cc1ccc(C(c2ccc(C#N)cc2)n2cncn2)cc1 [letrozole]
- progression free survival [9]: 14.5 months
